System: free cholesterol absorption
Test: short term hamster model tracking a bolus of gavaged radiolabeled cholesterol
Format: in vivo, Male Golden Syrian hamsters
From the text: To follow the movement of lipids across the intestinal wall leading to its subsequent appearance in the lymph, blood and liver, a short term hamster model which tracked a bolus of gavaged radiolabeled lipid was used. Free cholesterol absorption was examined in this hamster model to explore whether the cholesterol absorption inhibitor compound of Formula (XII): […]
Male Golden Syrian hamsters were fed a diet containing 0.5% cholesterol overnight and divided into groups of 5 animals. […] Two hours later, blood and liver samples were collected from each hamster. The blood was centrifuged for 20 minutes at 3000 rpm and the plasma was removed. Aliquots of the plasma and liver were analyzed for [^14C] radioactivity. Radioactive content was determined using a Beckman LSC (liquid […] counter).

[1] = hamsters fed 0.5% cholesterol diet, gavage 1 h before [14C]-cholesterol, samples two hours later, Compound XII 3 mg/kg, cholestyramine 1 g/kg
[2] = hamsters fed 0.5% cholesterol diet, samples two hours after [14C]-cholesterol, Compound XII 3 mg/kg, cholestyramine 1 g/kg
[3] = specified dosage (Compound XII 3 mg/kg, cholestyramine 1 g/kg)

SMILES: COc1ccc([C@@H]2[C@@H](CCCc3ccccc3)C(=O)N2c2ccc(OC)cc2)cc1 [Compound XII]
- Liver [14C]-cholesterol (DPM/gram of liver) [1]: 3755 ± 923 DPM/gram of liver
- Plasma [14C]-cholesterol (Decays Per Minute (DPM)/milliter of plasma) [1]: 1438 ± 455 DPM/milliter of plasma
- Liver [14C]-cholesterol, change versus Control (in brackets) [2]: −53%
- Plasma [14C]-cholesterol, change versus Control (in brackets) [2]: −71%
- reduction of liver (hepatic) [14C]-cholesterol levels [3]: 53%
- reduction of plasma [14C]-cholesterol levels [3]: 71%

— patent US20080261942A1, “COMBINATIONS OF BILE ACID SEQUESTRANT(S) AND STEROL ABSORPTION INHIBITOR(S) AND TREATMENTS FOR VASCULAR INDICATIONS” (SCHERING CORPORATION, priority 2001, published 2008)
